This note sets out measurements from patent publication US11291655B2, “RAD51 inhibitors” (Cyteir Therapeutics, Inc., priority 2017, dated 2022).

Structures are written as SMILES.

The assay relates to Daudi Cell Culture. Kind of assay: Compound primary screening in Daudi cell culture. It counts as cell-based. The settings on record: Homo sapiens, 168 h; Daudi cells, 1250 cells per well, reads on Day 7. On the procedure: Compound Primary Screening
1. Materials and Supplies
Plastic ware and consumables needed for this experiment include: Cell Culture media; Evaporation Buffer media; 100% DMSO; 96 well U-bottom sterile culture plates; 250 mL bottle; 1.5 mL Opaque amber epi tubes; Epi Tube rack; 300 mL reservoirs; 25 mL reservoir; 25 mL serological pipette tips; 5 mL serological pipette tips P1000 Pipette Tips; and P200 Pipette Tips.
Equipment needed for this experiment include: Viaflo 384 liquid handler; Eppendorf serological pipette; Eppendorf P1000 Pipette; and Eppendorf P200 Pipette
Daudi Cell Culture is also needed for this experiment.
Lastly, compounds (e.g., the compounds of this invention) to be tested are needed.
All steps were performed in a sterile environment inside the Biosafety cabinet.
A 96 well u-bottom plate was prepared by writing the experiment number, plate number, date and initials in the top right corner of the plate lid. With a sterile 300 ml reservoir, and 25 ml serological pipette, evaporation buffer media was pipetted into reservoir in 25 ml increments. Using the liquid handler, 150 ul of evaporation buffer media was pipetted from reservoir into rows A and H, and Columns 1 and 12 of the 96 well u-bottom plate. Cell cultures were counted to obtain the density of cells per ml, and the culture viability. The cell density information was used to obtain 1,000,000 cells from culture using a 5 mL serological pipette into an epi tube. The cell density information from the culture was used to calculate the number of cells and volume of media needed for the assay to seed 1250 cells in 130 ul of media per available culture well in the 96 well u-bottom plate. Rows B through F were used for cells (50 wells in total), with row G left for an empty media control. The calculation was overestimated by 10 mL to account for the dead volume in the 300 ml reservoir. Once the media volume was calculated, the appropriate volume of media was pipetted in 25 mL increments into the 250 mL bottle using a 25 mL serological pipette. The 250 ml bottle was capped tightly, and placed into a 37° C. water bath for 2 minutes. While the culture media was warming, 10 mL of fresh media was pipetted from the 500 mL culture media bottle into a sterile 25 mL reservoir. Using the Eppendorf multichannel pipette, 130 ul of media was pipetted from the 25 mL reservoir into row G of the 96 well u-bottom plate. Once the 250 mL bottle of media was warmed, the volume of culture needed was pipetted into the bottle, and mixed gently with a 25 mL serological pipette as to not create bubbles, and then the contents of the bottle were pipetted into a new 300 mL reservoir. Using the liquid handler, 130 ul of culture was pipetted from the 300 mL reservoir into rows B through F of the 96 well u-bottom plate. Once the culture was added, the plate was placed into a 37° C. incubator until the compound master plate was prepared for use.
Two 96 well u-bottom plates were prepared by writing the master plate name in the upper right corner of the plate lid. Labeling one DMSO master and the other Media Master. The compounds of interest were obtained from the laboratory freezer, and placed into a 25 well storage box with a lid, and set the box aside. The compounds were vortexed after thawing but before use. Using an automatic multichannel pipette, 20 ul of 100% DMSO was pipetted into wells B3-B11 through G3-G11 of the DMSO master plate. For each compound on the master plate, 50 ul of the compound were pipetted in the appropriate well of row 2 (reference plate map to determine appropriate well). A serial dilution was prepared beginning by aspirating 20 ul from row 2 and mixing with row 3, repeating until row 11 was reached. Using the liquid handler, 194 ul of Daudi media was dispensed into wells B2-B11 through G2-G11 of the Media master plate. Using the liquid handler, 6 ul from the DMSO master plate was aspirated and dispensed into the media master plate, mixing 100 ul twice. […]
In general, EC50 refers to the concentration that produces a half-maximal response. Low readings indicate greater potency, high ones weaker potency. In the case of `CC(C)OC(=O)Nc1ccc(-c2ncc(-c3ccc(NC(=O)NCc4ccccc4)cc3S(=O)(=O)NC(C)(C)C)s2)cc1` [Compound A2], the EC50 was < 1 µM.
Turning to `CC(=O)Nc1ccc(-c2cnc(-c3ccc(NC(=S)NC(C)C)cc3)s2)c(S(=O)(=O)N2CCNCC2)c1` [Compound A3], the concentration for a half-maximal effect (EC50) was < 5 µM.
The value for `CC(=O)Nc1ccc(-c2cnc(-c3ccc(N)cc3)s2)c(S(=O)(=O)NC(C)(C)C)c1` [Compound A4] was < 10 µM.
In the case of `CC(=O)Nc1ccc(-c2cnc(-c3ccc(OC(=O)NC(C)C)cc3)s2)c(S(=O)(=O)NC(C)(C)C)c1` [Compound A5], the 50% effective concentration (EC50) is < 5 µM.
Under `CC(C)OC(=O)Nc1ccc(-c2ncc(-c3ccc(-c4cnc[nH]4)cc3S(=O)(=O)NC(C)(C)C)s2)cc1` [Compound A6] stands < 5 µM; under `CC(C)N(C)C(=O)Nc1ccc(-c2ncc(-c3ccc(N4CCCC4=O)cc3S(=O)(=O)NC(C)(C)C)s2)cc1` [Compound A7], < 10 µM.
As for `CC(C)OC(=O)Nc1ccc(-c2ncc(-c3ccc(NC(=O)OCCO)cc3S(=O)(=O)NC(C)(C)C)s2)cc1` [Compound B1], the EC50 was < 5 µM.
As to `COCCOC(=O)Nc1ccc(-c2cnc(-c3ccc(NC(=O)OC(C)C)cc3)s2)c(S(=O)(=O)NC(C)(C)C)c1` [Compound B2], the EC50 was < 1 µM.
Regarding `CC(C)OC(=O)Nc1ccc(-c2ncc(-c3ccc(NC(=O)OCc4ccccn4)cc3S(=O)(=O)NC(C)(C)C)s2)cc1` [Compound B3], the EC50 is < 1 µM.
Turning to `CC(C)OC(=O)Nc1ccc(-c2ncc(-c3ccc(NC(=O)OCc4ccncc4)cc3S(=O)(=O)NC(C)(C)C)s2)cc1` [Compound B4], the EC50 is < 1 µM.
As for `C=C(C)COC(=O)Nc1ccc(-c2cnc(-c3ccc(NC(=O)OC(C)C)cc3)s2)c(S(=O)(=O)NC(C)(C)C)c1` [Compound B5], the EC50 was < 1 µM.
As to `CC(C)OC(=O)Nc1ccc(-c2ncc(-c3ccc(NC(=O)CCc4ccccc4)cc3S(=O)(=O)NC(C)(C)C)s2)cc1` [Compound B6], the EC50 was < 1 µM.
Turning to `CC(C)OC(=O)Nc1ccc(-c2ncc(-c3ccc(NC(=O)OCC4CCCN4)cc3S(=O)(=O)NC(C)(C)C)s2)cc1` (stereo not shown) [Compound B7], the 50% effective concentration (EC50) is < 5 µM.
With `CC(C)OC(=O)Nc1ccc(-c2ncc(-c3ccc(NC(=O)OCCc4ccccc4)cc3S(=O)(=O)NC(C)(C)C)s2)cc1` [Compound B8], the EC50 is < 1 µM.
Under `CC(C)OC(=O)Nc1ccc(-c2ncc(-c3ccc(NC(=O)OCc4cccnc4)cc3S(=O)(=O)NC(C)(C)C)s2)cc1` [Compound B9] stands < 1 µM; under `CC(C)OC(=O)Nc1ccc(-c2ncc(-c3ccc(NC(=O)OCC4CCCCC4)cc3S(=O)(=O)NC(C)(C)C)s2)cc1` [Compound B10], < 1 µM.
As to `CC(C)OC(=O)Nc1ccc(-c2ncc(-c3ccc(NC(=O)OCc4nccs4)cc3S(=O)(=O)NC(C)(C)C)s2)cc1` [Compound B11], the EC50 was < 1 µM.
With `C/C=C/COC(=O)Nc1ccc(-c2cnc(-c3ccc(NC(=O)OC(C)C)cc3)s2)c(S(=O)(=O)NC(C)(C)C)c1` [Compound B12], the EC50 is < 1 µM.
The value for `CC(C)OC(=O)Nc1ccc(-c2ncc(-c3ccc(NC(=O)OCCN)cc3S(=O)(=O)NC(C)(C)C)s2)cc1` [Compound B13] was < 5 µM.
With `CC(C)OC(=O)Nc1ccc(-c2ncc(-c3ccc(NC(=O)OCc4ncc[nH]4)cc3S(=O)(=O)NC(C)(C)C)s2)cc1` [Compound B14], the concentration giving a half-maximal response (EC50) is < 10 µM.
Consider `CC(C)OC(=O)Nc1ccc(-c2ncc(-c3ccc(NC(=O)OC(C)c4ccccc4)cc3S(=O)(=O)NC(C)(C)C)s2)cc1` (stereo not shown) [Compound B15], for which the EC50 was < 1 µM.
With `CC(C)OC(=O)Nc1ccc(-c2ncc(-c3ccc(NC(=O)NC(C)c4ccccc4)cc3S(=O)(=O)NC(C)(C)C)s2)cc1` (stereo not shown) [Compound C1], the 50% effective concentration (EC50) is < 1 µM.
The value for `COC(=O)[C@H](Cc1ccccc1)NS(=O)(=O)c1cc(NC(C)=O)ccc1-c1cnc(-c2ccc(NC(=S)NC(C)C)cc2)s1` [Compound D1] was > 10 µM; that for `COC(=O)[C@@H](NS(=O)(=O)c1cc(NC(C)=O)ccc1-c1cnc(-c2ccc(NC(=S)NC(C)C)cc2)s1)C(C)C` [Compound D2] was > 10 µM; that for `CC(=O)Nc1ccc(-c2cnc(-c3ccc(NC(=S)NC(C)C)cc3)s2)c(S(=O)(=O)NCc2ccccn2)c1` [Compound D3] was > 10 µM.
Take `CC(=O)Nc1ccc(-c2cnc(-c3ccc(NC(=S)NC(C)C)cc3)s2)c(S(=O)(=O)NCC(C)(C)CO)c1` [Compound D4]: the concentration for a half-maximal effect (EC50) was > 10 µM.
As to `CC(=O)Nc1ccc(-c2cnc(-c3ccc(NC(=S)NC(C)C)cc3)s2)c(S(=O)(=O)N[C@@H](C)CO)c1` [Compound D5], the half-maximal effective concentration (EC50) was > 10 µM.
For `CNS(=O)(=O)c1cc(NC(C)=O)ccc1-c1cnc(-c2ccc(NC(=S)NC(C)C)cc2)s1` [Compound D6], the 50% effective concentration (EC50) was > 10 µM.
Under `CC(=O)Nc1ccc(-c2cnc(-c3ccc(NC(=S)NC(C)C)cc3)s2)c(S(=O)(=O)N[C@H]2CC[C@H](O)CC2)c1` [Compound D7] stands > 10 µM; under `CC(=O)Nc1ccc(-c2cnc(-c3ccc(NC(=S)NC(C)C)cc3)s2)c(S(=O)(=O)N2CCOCC2)c1` [Compound D8], > 10 µM; under `CCNS(=O)(=O)c1cc(NC(C)=O)ccc1-c1cnc(-c2ccc(NC(=S)NC(C)C)cc2)s1` [Compound D9], > 10 µM.
`CC(=O)Nc1ccc(-c2cnc(-c3ccc(NC(=S)NC(C)C)cc3)s2)c(S(=O)(=O)N(C)C)c1` [Compound D10]: the half-maximal effective concentration (EC50) was < 1 µM.
On to `CC(=O)Nc1ccc(-c2cnc(-c3ccc(NC(=S)NC(C)C)cc3)s2)c(S(=O)(=O)NC(CO)CO)c1` [Compound D11], for which the EC50 is > 10 µM.
Consider `CC(=O)Nc1ccc(-c2cnc(-c3ccc(NC(=S)NC(C)C)cc3)s2)c(S(=O)(=O)NCc2ccncc2)c1` [Compound D12], for which the concentration for a half-maximal effect (EC50) was > 10 µM.
Turning to `CC(=O)Nc1ccc(-c2cnc(-c3ccc(NC(=S)NC(C)C)cc3)s2)c(S(=O)(=O)N2CCCC2)c1` [Compound D13], the 50% effective concentration (EC50) is > 10 µM.
For the molecule `CC(=O)Nc1ccc(-c2cnc(-c3ccc(NC(=S)NC(C)C)cc3)s2)c(S(=O)(=O)N2CCCCC2)c1` [Compound D14], the EC50 is > 10 µM.
In the case of `COC(=O)[C@H](CO)NS(=O)(=O)c1cc(NC(C)=O)ccc1-c1cnc(-c2ccc(NC(=S)NC(C)C)cc2)s1` [Compound D15], the EC50 was > 10 µM.
`CC(=O)Nc1ccc(-c2cnc(-c3ccc(NC(=S)NC(C)C)cc3)s2)c(S(=O)(=O)NCCN(C)C)c1` [Compound D16]: the concentration giving a half-maximal response (EC50) was > 10 µM.
On to `CC(=O)Nc1ccc(-c2cnc(-c3ccc(NC(=S)NC(C)C)cc3)s2)c(S(=O)(=O)NCCN)c1` [Compound D17], for which the half-maximal effective concentration (EC50) is > 10 µM.
Under `CC(=O)Nc1ccc(-c2cnc(-c3ccc(NC(=S)NC(C)C)cc3)s2)c(S(=O)(=O)N[C@H](CO)C(C)C)c1` [Compound D18] stands > 10 µM; under `CC(=O)Nc1ccc(-c2cnc(-c3ccc(NC(=S)NC(C)C)cc3)s2)c(S(=O)(=O)NCc2ccccc2)c1` [Compound D19], > 10 µM.
With `COC(=O)CNS(=O)(=O)c1cc(NC(C)=O)ccc1-c1cnc(-c2ccc(NC(=S)NC(C)C)cc2)s1` [Compound D20], the EC50 is > 10 µM.
For the molecule `COC(=O)[C@H](C)NS(=O)(=O)c1cc(NC(C)=O)ccc1-c1cnc(-c2ccc(NC(=S)NC(C)C)cc2)s1` [Compound D21], the EC50 was > 10 µM.
`CC(=O)Nc1ccc(-c2cnc(-c3ccc(NC(=S)NC(C)C)cc3)s2)c(S(=O)(=O)N2C3CCC2CC3)c1` [Compound D22]: the concentration giving a half-maximal response (EC50) is < 1 µM.
Regarding `CNCCCNS(=O)(=O)c1cc(NC(C)=O)ccc1-c1cnc(-c2ccc(NC(=S)NC(C)C)cc2)s1` [Compound D23], the concentration giving a half-maximal response (EC50) was > 10 µM.
Take `CC(=O)Nc1ccc(-c2cnc(-c3ccc(NC(=S)NC(C)C)cc3)s2)c(S(=O)(=O)NCCCN)c1` [Compound D24]: the 50% effective concentration (EC50) is > 10 µM.
